Results reported in US10188617B2, “Modulation of cellular DNA repair activity to intercept malignancy” (THE BOARD OF TRUSTEES OF THE LELAND STANFORD JUNIOR …, priority 2013, dated 2019).
Counter-ions that a name gives are not always drawn.

Columns and labels:
[1] = test system: BER of ODD in SUM149PT cells; test: High-throughput chemical screen with cell-based DNA repair assay (oxidatively damaged GFP reporter, host-cell reactivation); details: for EC50: read-out: EC50 (image analysis), dose-response increase in GFP expression by imaging, 20 μM to 0.3 μM two-fold dilutions; for Priority score (summed priority score): sum of assigned priority scores, range 1-10, 10 = highest priority; for % BER (High) (image analysis): % BER activity relative to negative control at high concentration; for identified as hit in the screen (enhanced BER of ODD): LOPAC1280 library, summed priority score above 1;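 on all read-outs here: SUM149PT cells pretreated 24 h with compound, then given photodynamically oxidized adenoviral GFP reporter, 24 h host-cell reactivation, GFP read as repair, undamaged reporter positive and damaged reporter negative control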
[2] = test system: BER of ODD in MCF7 cells (wild-type BRCA1, BER-proficient); test: DNA repair assay (oxidatively damaged GFP reporter gene), follow-up; type: cell-based, human; details: BER-proficient MCF7 cells
Method: (§1) Human breast cancer cell lines that were deficient in BER (HCC1143, MDAMB468, HCC1937, and SUM149) or proficient in BER (BT474 and MCF7) were cultured according to American Type Culture Collection guidelines, with the exception of SUM149, which was cultured according to Asterand plc guidelines. Brca1^+/+ and Brca1^-/- mouse mammary epithelial […] previously described. Cells were treated with DMSO (vehicle control) or acetohexamide or benserazide as indicated for 24 hours at 37° C. and 5% CO2. The DNA repair assay was carried out as described in the examples below. Where indicated, BER (base excision mode of DNA repair) activity was expressed relative to the control (DMSO).

[3] = test system: BER of ODD in SUM149 cells (mutant BRCA1, BER-defective); test: as above; type: cell-based, human; details: for BER compared to the vehicle control (SAR mini-analysis): SUM149PT cells; for repair activity compared to the vehicle control: SUM149
Method: as §1

[4] = test system: MCF7 cells transduced with shRNA to BRCA1; test: Soft agar colony formation assay; type: cell-based, human
From the text: (§2) […] Colony formation represents tumorigenic potential. Tamoxifen is the current FDA-approved chemoprevention agent for breast cancer and a therapeutically-equivalent dose was used for comparison.
(§3) Benserazide and carbidopa were also both included among the compounds screened for BER-enhancing activity (FIG. 3A-3B). […] Therefore, we first validated our screening data by subjecting the mutant BRCA1-containing SUM149 cell line to the BER assay following pre-treatment with vehicle control or carbidopa.

[5] = test system: MCF7 cells transduced with non-targeting control; test: Soft agar colony formation assay; type: cell-based, human
From the text: as §2, §3

| SMILES | EC50 [1] | Priority score (summed priority score) [1] | also measured |
| --- | --- | --- | --- |
| Cl.NC(CO)C(=O)NNCc1ccc(O)c(O)c1O (racemic) [Benserazide hydrochloride, DL-Serine 2-(2,3,4-trihydroxybenzyl)hydrazide hydrochloride] | 22.1 µM | 7 | – |
| COC(=O)C(N)Cc1ccc(Cl)cc1.Cl (racemic) [DL-p-Chlorophenylalanine methyl ester hydrochloride] | 25.8 µM | 7 | – |
| CN(C)CCC(c1ccc(Br)cc1)c1ccccn1.O=C(O)/C=C\C(=O)O (single isomer, unassigned; (+)) [(+)-Brompheniramine maleate] | 27.5 µM | 7 | % BER (High) (image analysis) ([1]; imaging): 29.4% |
| Cl.NCCc1ccc(S(=O)(=O)F)cc1 [4-(2-Aminoethyl)benzenesulfonyl fluoride hydrochloride] | 98.7 µM | 7 | % BER (High) (image analysis) ([1]; imaging): 25.1% |
| O=c1[nH]c(=O)n([C@H]2C[C@H](O)[C@@H](CO)O2)cc1Br [5-Bromo-2′-deoxyuridine] | 7.27 µM | 10 | GFP signal in image montage ([1]; preliminary screen, highest concentration tested 18 uM): visible signal similar to that of SUM149PTcells infected with undamaged adGFP; percentage of GFP-positive cells (normalized to Hoechst 33342-positive cells) ([1]; preliminary screen, imaging): dose-response increase in the percentage of GFP-positive cells; GFP intensity (normalized to Hoechst 33342-intensity) ([1]; preliminary screen, plate reading): dose-response increase in GFP intensity |
| N=c1ccn2c(n1)O[C@H]1[C@H](O)[C@@H](CO)O[C@H]12 [Ancitabine hydrochloride] | 19.8 µM | 10 | – |
| Cc1ccc(S(=O)(=O)NC(=O)NC2CCCCC2)cc1 [BA-4] | – | – | repair compared to vehicle control (SAR mini-analysis) [2]: none of the four analogs significantly increased repair; BER compared to the vehicle control (SAR mini-analysis) [3]: significantly increased BER |
| CCCCNC(=O)NS(=O)(=O)c1ccccc1 [BA-5] | – | – | repair compared to vehicle control (SAR mini-analysis) [2]: none of the four analogs significantly increased repair; BER compared to the vehicle control (SAR mini-analysis) [3]: increased BER in these cells but without statistical significance |
| CC(C)CCNC(=O)NS(=O)(=O)c1ccccc1 [BA-9] | – | – | repair compared to vehicle control (SAR mini-analysis) [2]: none of the four analogs significantly increased repair; BER compared to the vehicle control (SAR mini-analysis) [3]: significantly increased BER |
| CC(C)COCC(CN(Cc1ccccc1)c1ccccc1)N1CCCC1 (stereo not drawn) [Bepridil hydrochloride] | 22.7 µM | 10 | – |
| CC[N+](C)(C)Cc1ccccc1Br [Bretylium tosylate] | 26.9 µM | 7 | – |
| CNc1ccc2oc(C[C@H]3O[C@@]4(CC[C@H]3C)O[C@H]([C@H](C)C(=O)c3ccc[nH]3)[C@H](C)C[C@H]4C)nc2c1C(=O)O [Calcimycin] | 5.14 µM | 7 | – |
| C[C@@]12C(=O)OC(=O)[C@]1(C)[C@H]1CC[C@@H]2O1 [Cantharidin] | – | 10 | – |
| C[C@H](CS)C(=O)N1CCC[C@H]1C(=O)O [Captopril] | 18.8 µM | 7 | – |
| CN(C)CCOC(=O)COc1ccc(Cl)cc1 [Centrophenoxine hydrochloride] | 20.4 µM | 7 | – |
| Clc1ccccc1C(c1ccccc1)(c1ccccc1)n1ccnc1 [Clotrimazole] | – | 7 | – |
| CC(=O)O[C@]1(C(C)=O)CC[C@H]2[C@@H]3C=C(Cl)C4=CC(=O)[C@@H]5C[C@@H]5[C@]4(C)[C@H]3CC[C@@]21C [Cyproterone acetate] | 27.8 µM | 7 | – |
| Cl.Nc1ccn([C@@H]2O[C@H](CO)[C@@H](O)[C@@H]2O)c(=O)n1 [Cytosine-1-beta-D-arabinofuranoside hydrochloride] | 22.8 µM | 10 | % BER (High) (image analysis) ([1]; imaging): 18.3% |
| Cc1cnc(C(=O)NCCc2ccc(S(=O)(=O)NC(=O)NC3CCCCC3)cc2)cn1 [Glipizide, N-(4-[N-(cyclohexylcarbamoyl)sulfamoyl]phenethyl)-5-methylpyrazine-2-carboxamide] | – | 2 | repair compared to vehicle control (SAR mini-analysis) [2]: none of the four analogs significantly increased repair; BER compared to the vehicle control (SAR mini-analysis) [3]: significantly increased BER; relative BER activity ([3]; relative to the control (DMSO)): 1.22±0.12; identified as hit in the screen (enhanced BER of ODD) [1]: identified as a hit |
| O=C1c2c(O)ccc(O)c2C(=O)c2c(NCCNCCO)ccc(NCCNCCO)c21 [Mitoxantrone] | 13.2 µM | 7 | – |
| C[C@@](Cc1ccc(O)c(O)c1)(NN)C(=O)O [carbidopa, Carbidopa] | – | – | repair activity compared to the vehicle control ([3]; 10 μM): no effect on repair activity; repair activity compared to the vehicle control ([3]; 20 μM): no effect on repair activity; colony formation compared to vehicle control ([4]; 10 μM): no significant effect on colony formation; colony formation compared to vehicle control ([4]; 20 μM): no significant effect on colony formation; colony formation compared to vehicle control ([5]; 10 μM): no significant effect on colony formation; colony formation compared to vehicle control ([5]; 20 μM): no significant effect on colony formation; identified as hit in the screen (enhanced BER of ODD) [1]: did not identify carbidopa as a hit |
